Test results from patent US9884063B2, “Amido-substituted azole compounds” (Bayer Pharma Aktiengesellschaft, priority 2014, dated 2018).

Legend:
TNKS2 = target: T1, TNKS2 (Homo sapiens, UniProt Q9H2K2); assay: Modified TNKS2 Assay 2 (auto-parsylation, [3H]-NAD+ SPA); format: biochemical; settings: 6 nM TNKS2, 96 well
T1 sequence (Q9H2K2 1-1166): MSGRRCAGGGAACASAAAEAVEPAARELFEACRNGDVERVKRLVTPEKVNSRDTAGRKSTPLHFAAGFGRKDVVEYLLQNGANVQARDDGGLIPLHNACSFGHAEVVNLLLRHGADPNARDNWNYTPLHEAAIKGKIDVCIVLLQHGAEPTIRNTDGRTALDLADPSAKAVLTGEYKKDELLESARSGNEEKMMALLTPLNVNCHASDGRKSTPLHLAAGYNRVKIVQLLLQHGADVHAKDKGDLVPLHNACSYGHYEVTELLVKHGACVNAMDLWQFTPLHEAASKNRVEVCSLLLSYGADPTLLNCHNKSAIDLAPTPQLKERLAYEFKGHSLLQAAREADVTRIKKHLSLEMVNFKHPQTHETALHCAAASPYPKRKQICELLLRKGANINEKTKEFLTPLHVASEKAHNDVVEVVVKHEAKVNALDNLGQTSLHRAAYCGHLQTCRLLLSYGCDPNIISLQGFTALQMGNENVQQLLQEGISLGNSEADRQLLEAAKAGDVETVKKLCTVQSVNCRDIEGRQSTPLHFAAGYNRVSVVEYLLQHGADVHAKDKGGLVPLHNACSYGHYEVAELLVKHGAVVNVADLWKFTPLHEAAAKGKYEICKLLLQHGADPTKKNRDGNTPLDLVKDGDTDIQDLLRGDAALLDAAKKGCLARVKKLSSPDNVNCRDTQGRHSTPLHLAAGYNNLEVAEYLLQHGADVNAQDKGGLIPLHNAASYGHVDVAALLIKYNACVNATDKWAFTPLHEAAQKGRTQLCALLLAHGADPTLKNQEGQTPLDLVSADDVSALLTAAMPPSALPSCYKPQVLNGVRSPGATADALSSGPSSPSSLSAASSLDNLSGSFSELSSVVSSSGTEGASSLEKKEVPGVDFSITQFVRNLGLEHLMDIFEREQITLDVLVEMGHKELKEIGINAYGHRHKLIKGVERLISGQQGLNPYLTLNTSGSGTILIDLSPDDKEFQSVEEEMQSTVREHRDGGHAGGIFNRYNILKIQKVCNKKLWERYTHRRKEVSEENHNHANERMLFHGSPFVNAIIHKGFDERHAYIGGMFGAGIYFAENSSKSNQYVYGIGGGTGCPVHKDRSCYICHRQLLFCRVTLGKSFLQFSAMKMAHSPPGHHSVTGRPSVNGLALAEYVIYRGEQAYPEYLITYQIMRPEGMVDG

[1] = system: wildtype Wnt signaling cascade; assay: HEK293 TOP Assay (Super TopFlash luciferase reporter, Wnt-3a stimulated); format: cell-based; settings: Homo sapiens, HEK293, 16 h
Summary of the method: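 HEK293 cells stably carrying Super TopFlash (TOP) or FOP reporter, stimulated with recombinant human Wnt-3a (2500–5 ng/ml, two-fold steps). Both lines incubated in parallel with compound from 50 μM to 15 nM (3.16-fold) in CAFTY buffer pH 7.4 with 2 mM Ca2+ and 0.01% BSA; selectivity judged TOP vs FOP.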

[2] = HEK293 TOP reporter cell line, Wnt-3a at EC50, 16 hours incubation, compound dilution series 50 μM to 15 nM
[3] = HEK293 TOP reporter cells, Wnt3a at EC50, 16 hours, luciferase

Row | SMILES | IC50 (TNKS2) | IC50 [1, 2] | IC50 [1, 3]
1 | O=C(Nc1ccc(NC(=O)c2[nH]cnc2C(=O)NCCN2CCCCC2)cc1)c1ccc(F)cc1Cl [Example 32, N^4-{4-[(2-chloro-4-fluorobenzoyl)amino]phenyl}-N^5-[2-(piperidin-1-yl)ethyl]-1H-imidazole-4,5-dicarboxamide] | 0.3 nM | 20 nM | 20 nM
2 | CNC(=O)c1nc[nH]c1C(=O)Nc1ccc(NC(=O)c2ccc(F)c(Cl)c2)cc1 [Example 340, N^5-{4-[(3-chloro-4-fluorobenzoyl)amino]phenyl}-N^4-methyl-1H-imidazole-4,5-dicarboxamide] | > 10000 nM | 3850 nM | 
3 | CNC(=O)c1nc[nH]c1C(=O)Nc1ccc(NC(=O)c2nccnc2Cl)cc1 [Example 372, N^5-(4-{[(3-chloropyrazin-2-yl)carbonyl]amino}phenyl)-N^4-methyl-1H-imidazole-4,5-dicarboxamide] | 4800 nM | 9700 nM | 
4 | CCc1nc(C(=O)Nc2ccc(NC(=O)c3ccc(F)cc3Cl)cc2)c(C(=O)NC)[nH]1 [Example 68, N^4-{4-[(2-chloro-4-fluorobenzoyl)amino]phenyl}-2-ethyl-N^5-methyl-1H-imidazole-4,5-dicarboxamide] | > 10000 nM | 2150 nM | 
5 | CCc1ccccc1C(=O)Nc1ccc(NC(=O)c2[nH]cnc2C(=O)NC)cc1 [Example 39, N^5-{4-[(2-ethylbenzoyl)amino]phenyl}-N^4-methyl-1H-imidazole-4,5-dicarboxamide] | 2200 nM | 1700 nM | 1700 nM
6 | CNC(=O)c1nc[nH]c1C(=O)Nc1ccc(NC(=O)c2cncc(C)c2)cc1 [Example 366, N^4-methyl-N^5-(4-{[(5-methylpyridin-3-yl)carbonyl]amino}phenyl)-1H-imidazole-4,5-dicarboxamide] | > 10000 nM | 50000 nM | 
7 | CNC(=O)c1nc[nH]c1C(=O)Nc1ccc(NC(=O)c2ccccc2)cc1 [Example 21, N^5-[4-(benzoylamino)phenyl]-N^4-methyl-1H-imidazole-4,5-dicarboxamide] | > 10000 nM | 12000 nM | 12000 nM

The remaining lines, values ahead:

Row | IC50 (TNKS2) | IC50 [1, 2] | IC50 [1, 3] | SMILES
8 | 70 nM | 1200 nM |  | O=C(Nc1ccc(NC(=O)c2nc[nH]c2C(=O)N[C@H]2CCNC2)cc1)c1ccc(F)cc1Cl [Example 281, N^4-{4-[(2-chloro-4-fluorobenzoyl)amino]phenyl}-N^5-[(3S)-pyrrolidin-3-yl]-1H-imidazole-4,5-dicarboxamide]
9 | 30 nM | 860 nM |  | CNC(=O)c1nc[nH]c1C(=O)Nc1ccc(NC(=O)c2ccc(Br)cc2Cl)cc1 [Example 334, N^5-{4-[(4-bromo-2-chlorobenzoyl)amino]phenyl}-N^4-methyl-1H-imidazole-4,5-dicarboxamide]
10 | 60 nM | 700 nM |  | O=C(Nc1ccc(NC(=O)c2[nH]cnc2C(=O)NCCc2ccncc2)cc1)c1ccc(F)cc1Cl [Example 394, N^5-{4-[(2-chloro-4-fluorobenzoyl)amino]phenyl}-N^4-[2-(pyridin-4-yl)ethyl]-1H-imidazole-4,5-dicarboxamide]
11 | 20 nM | 910 nM |  | O=C(Nc1ccc(NC(=O)c2nc[nH]c2C(=O)NCCN2CCC(F)(F)C2)cc1)c1ccc(F)cc1Cl [Example 279, N^4-{4-[(2-chloro-4-fluorobenzoyl)amino]phenyl}-N^5-[2-(3,3-difluoropyrrolidin-1-yl)ethyl]-1H-imidazole-4,5-dicarboxamide]
12 | 110 nM | 570 nM |  | O=C(Nc1ccc(NC(=O)c2nc[nH]c2C(=O)NCCN2CCCCC2)cc1OC(F)(F)F)c1ccc(F)cc1Cl [Example 293, N^4-{4-[(2-chloro-4-fluorobenzoyl)amino]-3-(trifluoromethoxy)phenyl}-N^5-[2-(piperidin-1-yl)ethyl]-1H-imidazole-4,5-dicarboxamide]
13 | 100 nM | 260 nM |  | CNC(=O)c1nc[nH]c1C(=O)Nc1ccc(NC(=O)c2cc(F)ccc2Cl)cc1 [Example 361, N^5-{4-[(2-chloro-5-fluorobenzoyl)amino]phenyl}-N^4-methyl-1H-imidazole-4,5-dicarboxamide]
14 | 1700 nM | 1900 nM |  | O=C(Nc1ccc(NC(=O)c2[nH]cnc2C(=O)NCCc2ccccc2)cc1)c1ccc(F)cc1Cl [Example 384, N^5-{4-[(2-chloro-4-fluorobenzoyl)amino]phenyl}-N^4-(2-phenylethyl)-1H-imidazole-4,5-dicarboxamide]
15 | 450 nM | 670 nM |  | CC1(C)CC(NC(=O)c2nc[nH]c2C(=O)Nc2ccc(NC(=O)c3ccc(F)cc3Cl)cc2)CCO1 (stereo not shown) [Example 391, N^5-{4-[(2-chloro-4-fluorobenzoyl)amino]phenyl}-N^4-(2,2-dimethyltetrahydro-2H-pyran-4-yl)-1H-imidazole-4,5-dicarboxamide]
16 | 260 nM | 620 nM |  | Cc1cc(NC(=O)c2[nH]cnc2C(=O)NCCN(C)C)ccc1NC(=O)c1ccc(F)cc1Cl [Example 84, N^5-{4-[(2-chloro-4-fluorobenzoyl)amino]-3-methylphenyl}-N^4-[2-(dimethylamino)ethyl]-1H-imidazole-4,5-dicarboxamide]
17 | 90 nM | 700 nM |  | CCN1CCC[C@@H]1CNC(=O)c1nc[nH]c1C(=O)Nc1ccc(NC(=O)c2ccc(F)cc2Cl)cc1 [Example 413, N^5-{4-[(2-chloro-4-fluorobenzoyl)amino]phenyl}-N^4-{[(2R)-1-ethylpyrrolidin-2-yl]methyl}-1H-imidazole-4,5-dicarboxamide]
